Results reported in ChEMBL document CHEMBL1201862, “PubChem BioAssay data set” (2004).
Several values for one entry are separate records, joined by “and”; a condition that tells them apart may be missing. Equal values may be shown once.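 How tested: cells in 96-well plates exposed to compound for 48 hours at five concentrations. GI50 = concentration required for 50% inhibition of growth.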 Activity calls are given as the source filed them. Cut-off read from the data, not from the text of the source: active = GI50 up to about 1.1 µM and inactive = higher. Where a SMILES comes first, the peptide text is derived from it. [ ]: non-standard residue; d: D form. The star is where a group is joined. Iva = CC[C](C)(N)C(=O)O; Boc = CC(C)(C)OC(=O)*; X54 = C1CCC(=NO*)C1

Legend:
Assay in all cases: DTP human tumour cell line panel, 48 h
UACC-257 = tested on: UACC-257
SK-MEL-28 = tested on: SK-MEL-28
LOX IMVI = tested on: LOX IMVI
SF-268 = tested on: SF-268
RXF 393 = tested on: RXF 393
K562 = tested on: K562
CCRF-CEM = tested on: CCRF-CEM
HT-29 = tested on: HT-29
OVCAR-5 = tested on: OVCAR-5
HCT-116 = tested on: HCT-116
M19-MEL = tested on: M19-MEL
KM-20L2 = tested on: KM-20L2
SF-295 = tested on: SF-295
MCF7 = tested on: MCF7
SK-MEL-2 = tested on: SK-MEL-2
NCI-H460 = tested on: NCI-H460
MOLT-4 = tested on: MOLT-4
UO-31 = tested on: UO-31
A498 = tested on: A498
SR = tested on: SR

Measured: GI50

CC1=NN(C(=O)c2ccc(C)cc2)C(=O)C1/N=N/c1ccccc1C(=O)O (configuration not stated)
inactive: UACC-257 > 100 µM | SK-MEL-28 > 100 µM | LOX IMVI > 100 µM | SF-268 > 100 µM | RXF 393 > 100 µM | K562 66.4 µM | CCRF-CEM 53.7 µM | HT-29 > 32.1 µM | OVCAR-5 > 100 µM | HCT-116 > 100 µM | M19-MEL > 100 µM | KM-20L2 > 100 µM | SF-295 > 92.3 µM | MCF7 > 100 µM | SK-MEL-2 > 100 µM | NCI-H460 > 100 µM | MOLT-4 > 73.8 µM | UO-31 > 100 µM

COc1cc2cc[n+]3c(C)c4cc(OC)c(OC)cc4c([O-])c3c2cc1OC
inactive: UACC-257 30.8 µM | A498 > 100 µM | SR 61 µM | SK-MEL-28 64.3 µM | SF-268 36.3 µM | RXF 393 35.6 µM | K562 64.3 µM | CCRF-CEM 27 µM | HT-29 41.2 µM | OVCAR-5 > 100 µM | HCT-116 89.7 µM | M19-MEL 46.6 µM | KM-20L2 53.2 µM | SF-295 > 100 µM | SK-MEL-2 56.9 µM | NCI-H460 > 100 µM | MOLT-4 48.8 µM | UO-31 > 100 µM

COc1ccc(/C=N/n2cnc3c(c2=O)SC(=C(C#N)C#N)N3c2ccccc2)cc1
inactive: UACC-257 > 100 µM | SR > 100 µM | SK-MEL-28 90.8 µM | SF-268 41.1 µM | K562 > 100 µM | CCRF-CEM > 100 µM | HT-29 > 100 µM | OVCAR-5 > 100 µM | HCT-116 > 100 µM | M19-MEL > 100 µM | SF-295 74.5 µM | NCI-H460 > 100 µM | MOLT-4 > 100 µM | UO-31 > 100 µM

COc1cc(C(O)(CC#N)c2cc3c(cc2Br)OCO3)cc(OC)c1OC (configuration not stated)
inactive: UACC-257 27.9 µM | SK-MEL-28 23.4 µM | LOX IMVI 31.3 µM | SF-268 28.2 µM | RXF 393 17.2 µM | K562 48 µM | CCRF-CEM 43.2 µM | HT-29 25.4 µM | OVCAR-5 17.4 µM | HCT-116 40.6 µM | SF-295 16.3 µM | MCF7 14.7 µM | SK-MEL-2 47 µM | NCI-H460 18.8 µM | MOLT-4 56 µM | UO-31 57.5 µM

CSc1cc(=O)n2c3ccccc3c3ccnc1c32
inactive: UACC-257 > 54.5 µM | A498 > 91.4 µM | SK-MEL-28 > 100 µM | LOX IMVI > 100 µM | SF-268 > 49.9 µM | RXF 393 > 49.2 µM | K562 > 100 µM | CCRF-CEM > 100 µM | HT-29 > 100 µM | OVCAR-5 97.1 µM | HCT-116 > 100 µM | M19-MEL > 100 µM | KM-20L2 > 61.8 µM | SF-295 > 65.2 µM | MCF7 34.6 µM | SK-MEL-2 > 100 µM | NCI-H460 57 µM | MOLT-4 > 100 µM | UO-31 45.6 µM

CCOC(=O)c1ccc(N2C(=O)/C(=C/c3ccc(N(CCC#N)CCC#N)cc3)N=C2c2cc([N+](=O)[O-])ccc2Cl)cc1
inactive: SR > 100 µM | SK-MEL-28 > 100 µM | LOX IMVI > 100 µM | SF-268 > 100 µM | RXF 393 > 100 µM | K562 > 100 µM | CCRF-CEM > 100 µM | OVCAR-5 > 100 µM | HCT-116 > 100 µM | M19-MEL > 100 µM | KM-20L2 > 100 µM | SF-295 > 100 µM | SK-MEL-2 > 100 µM | MOLT-4 > 100 µM | UO-31 > 100 µM

CC(=O)c1ccc(Oc2ccc(/C(C)=N\N=C(N)N)cc2)cc1
inactive: UACC-257 5.68 µM | A498 1.77 µM | SK-MEL-28 4.68 µM | LOX IMVI 3.4 µM | SF-268 3.59 µM | CCRF-CEM 1.91 µM | HT-29 1.67 µM | OVCAR-5 4.68 µM | HCT-116 3.24 µM | KM-20L2 1.71 µM | SF-295 2.38 µM | SK-MEL-2 1.73 µM | NCI-H460 2.77 µM | MOLT-4 2.25 µM

O=C1C(Cl)N(c2ccc(Cl)cc2)C1c1c[nH]c2ccccc12 (configuration not stated)
inactive: UACC-257 16.8 µM | SR 9.18 µM | SK-MEL-28 24.8 µM | SF-268 26.2 µM | RXF 393 20 µM | K562 16.7 µM | CCRF-CEM 13 µM | HT-29 17.1 µM | HCT-116 13.8 µM | M19-MEL 24.3 µM | KM-20L2 13.2 µM | SF-295 16.4 µM | SK-MEL-2 14.5 µM | NCI-H460 15 µM | MOLT-4 14.7 µM | UO-31 11.6 µM

C/C(=N/NC(=O)c1ccncc1)C(F)(F)F
inactive: A498 > 100 µM | SR > 100 µM | SK-MEL-28 > 100 µM | RXF 393 > 100 µM | K562 > 100 µM | HT-29 > 100 µM | OVCAR-5 > 100 µM | HCT-116 > 100 µM | SF-295 > 100 µM | MCF7 > 100 µM | SK-MEL-2 > 100 µM | NCI-H460 > 10 µM | MOLT-4 > 100 µM | UO-31 > 100 µM

COC(=O)/C=C\Sc1ccn(/C=C\C(=O)OC)c(=S)n1
inactive: UACC-257 28.6 µM | A498 20.2 µM | SR 13.7 µM | SK-MEL-28 29.9 µM | LOX IMVI 2.77 µM | SF-268 24.4 µM | RXF 393 10.5 µM | K562 38.5 µM | CCRF-CEM > 100 µM | HT-29 22.2 µM | OVCAR-5 38.5 µM | MCF7 14.3 µM | SK-MEL-2 19.9 µM | NCI-H460 > 10 µM | UO-31 25.1 µM

CC(Oc1ccc(Oc2cnc3ccc(Cl)cc3n2)cc1)C(=O)O (configuration not stated)
inactive: A498 > 80.4 µM | SR > 44.5 µM | LOX IMVI 51.8 µM | SF-268 89.7 µM | RXF 393 > 100 µM | CCRF-CEM > 74.1 µM | OVCAR-5 > 100 µM | HCT-116 88.7 µM | SF-295 98.9 µM | MCF7 37.3 µM and 84.3 µM | SK-MEL-2 > 100 µM | NCI-H460 60.4 µM and 19.6 µM | MOLT-4 15.1 µM | UO-31 > 95.9 µM

CCC(C)(NC(=O)C(C)NC(=O)OC(C)(C)C)C(=O)NC(C)C(=O)NC(C)(CC)C(=O)ON=C1CCCC1 (configuration not stated) (Boc-A[Iva]A[Iva]-X54; configuration not given here)
inactive: A498 > 100 µM | SR > 100 µM | SK-MEL-28 > 100 µM | RXF 393 16.7 µM | K562 31.1 µM | CCRF-CEM > 100 µM | OVCAR-5 > 100 µM | HCT-116 > 100 µM | SF-295 > 100 µM | MCF7 > 100 µM | SK-MEL-2 > 100 µM | NCI-H460 > 100 µM | MOLT-4 29.9 µM | UO-31 > 100 µM
